Measurements as given in ChEMBL document CHEMBL1159016, “Patellamide E: a new cyclic peptide from the ascidian Lissoclinum patella” (J Nat Prod, 1992).
In brackets after ≈: the same amount, converted by molar mass.

System: HCT-116
Assay: Cytotoxicity against human HCT116 cells
Type: functional, cell-based

CC[C@H](C)[C@@H]1NC(=O)c2csc(n2)[C@@H](C(C)C)NC(=O)[C@H]2N=C(O[C@@H]2C)[C@H](C(C)C)NC(=O)c2csc(n2)[C@@H](Cc2ccccc2)NC(=O)[C@H]2N=C1O[C@@H]2C [PATELLAMIDE E]
IC50: 125 µg/mL (≈ 158 µM)
